Read-outs that look alike come from different tables or passages of the source.
Tests used:
B. thailandensis = experiment: microbe, parasite or virus in culture; assay type: cell-based
B. dolosa strain AU0158 = experiment: Invasion of and/or intracellular survival in THP-1-derived macrophages, antibiotic exclusion assay; assay type: cell-based, B. dolosa strain AU0158 (in human THP-1-derived macrophages)
B. cenocepacia = experiment: Invasion/intracellular survival in THP-1-derived macrophages; assay type: cell-based; settings: 4 h
B. multivorans = experiment: as above; assay type: cell-based; settings: 4 h
Mycobacterium abscessus = experiment: Intracellular invasion/survival in THP-1-derived macrophages; assay type: cell-based; settings: 25 μM, 2 h plus 2 h with amikacin
Experimental: FIG. 9. BFA compounds reduce the virulence of M. abscessus. FIG. 9 provides a graph showing the results after THP-1-derived macrophages were infected with ~5×10^5 CFU/M. abscessus strain ATCC19977 and 25 μM of the indicated BFA or DMSO vehicle control for 2 hours. Cells were washed and treated with the same BFA and 500 μg/mL amikacin (to kill extracellular bacteria) for 2 hours.
To determine whether BFA compounds could inhibit the virulence of Mycobacterium abscessus THP-1-derived macrophages were used.

[1] = test system: P. aeruginosa strain PA14; experiment: P. aeruginosa-induced cytotoxicity of A549 cells (LDH release); settings: 25 μM, 5.5 hours
[2] = test system: Burkholderia FixLJ pathway (Fix-GFP reporter in B. multivorans strain VC7102); experiment: Fix-GFP reporter activation screen (GFP fluorescence)

In the case of `CCCCCCc1cc2cc(-c3nnc(-c4ccc(C)cc4)o3)c(=O)oc2cc1O` [BFA1, 6-HEXYL-7-HYDROXY-3-[5-(4-METHYLPHENYL)-1,3,4-OXADIAZOL-2-YL]-2H-CHROMEN-2-ONE], the “inhibition of invasion/survival of B. thailandensis” value (B. thailandensis; 25 μM, 4 h) is reported as “able to inhibit the invasion/survival of B. cenocepacia (FIG. 3B) and B. thailandensis”, the minimal effective concentration (B. thailandensis; Burkholderia thailandensis, Macrophage, 2 h, read-out: dose inhibiting invasion/survival of B. thailandensis) is reported as 6.25 µM and the “inhibition of invasion/survival of B. dolosa in macrophages” value (B. dolosa strain AU0158) is reported as “inhibited virulence at a lower concentration and at a greater magnitude than the other BFA compounds”. The “inhibition of invasion/survival of B. dolosa in macrophages” value (B. dolosa strain AU0158; for BFA 2-8 at highest dose tested) was ~ 75%, the “inhibition of invasion/survival of B. cenocepacia” value (B. cenocepacia; 25 μM) was “able to inhibit the invasion/survival of B. cenocepacia” and the “dose needed to inhibit B. cenocepacia” value (B. cenocepacia; dose range, compared with 6.25 μM) was “higher doses were needed to inhibit B. cenocepacia”. The “inhibition of invasion/survival of B. multivorans” value (B. multivorans; 25 μM, THP-1-derived macrophages) was “inhibited the invasion/survival of all three additional Burkholderia species”, the minimal effective concentration (B. multivorans; Burkholderia multivorans, Macrophage, read-out: dose inhibiting invasion/survival of B. multivorans) was 6.25 µM and the “inhibition of intracellular invasion/survival of M. abscessus” value (Mycobacterium abscessus) was “able to inhibit the intracellular invasion/survival within the macrophages”.

For `COCCNC(=O)CCn1c(=O)c2cc(OC)c(OC)cc2n(CC(=O)Nc2ccccc2OC)c1=O` [BFA2, 3-(6,7-Dimethoxy-1-{[(2-Methoxyphenyl)Carbamoyl]Methyl}-2,4-Dioxo-1,2,3,4-Tetrahydroquinazolin-3-Yl)-N-(2-Methoxyethyl)Propanamide], the “inhibition of intracellular invasion/survival of M. abscessus” value (Mycobacterium abscessus) was “able to inhibit the intracellular invasion/survival within the macrophages”.

`CCc1ccccc1N1CC(c2nc3ccccc3n2CCCCOc2ccccc2)CC1=O` (centres unmarked) [BFA3, 1-(2-ETHYLPHENYL)-4-[1-(4-PHENOXYBUTYL)-1H-1,3-BENZODIAZOL-2-YL]PYRROLIDIN-2-ONE] was tested, and the “inhibition of PA14-induced cytotoxicity” value [1] was “able to significantly reduce cytotoxicity” and the “inhibition of intracellular invasion/survival of M. abscessus” value (Mycobacterium abscessus) was “able to inhibit the intracellular invasion/survival within the macrophages”.

In the case of `Cc1ccccc1-n1c(/C=C/c2ccc(N(C)C)cc2)nc2ccccc2c1=O` [BFA6, 2-[(1E)-2-[4-(DIMETHYLAMINO)PHENYL]ETHENYL]-3-(2-METHYLPHENYL)-3,4-DIHYDROQUINAZOLIN-4-ONE], the “inhibition of invasion/survival of B. thailandensis” value (B. thailandensis) is reported as “able to inhibit the invasion/survival of B. thailandensis” and the “inhibition of PA14-induced cytotoxicity” value [1] is reported as “able to significantly reduce cytotoxicity”.

With `CCCCN(C)CCCNC(=O)Cn1ncc2c3ccccc3n(Cc3cccc(Cl)c3)c2c1=O` [BFA7, N-{3-[Butyl(Methyl)Amino]Propyl}-2-{5-[(3-Chlorophenyl)Methyl]-4-Oxo-3h,4h,5h-Pyridazino[4,5-B]Indol-3-Yl}Acetamide] the “inhibition of PA14-induced cytotoxicity” value [1] was “able to significantly reduce cytotoxicity” and the “inhibition of intracellular invasion/survival of M. abscessus” value (Mycobacterium abscessus) was “able to inhibit the intracellular invasion/survival within the macrophages”.

With `NC(CO)C(=O)NNCc1ccc(O)c(O)c1O` (centres unmarked) [Benserazide, benserazide] the “GFP activity above the mean of the negative control (DMSO)” value [2] was “more than 3 standard deviations”.

— US20260335320A1, “ANTI-VIRULENCE AGENTS AND METHODS FOR THE TREATMENT OF PATHOGENIC BACTERIUM” (priority 2023, published 2026)
